From patent publication US11192877B2, “3-(5-hydroxy-1-oxoisoindolin-2-yl)piperidine-2,6-dione derivatives and uses thereof” (Novartis AG, priority 2018, dated 2021)
Where a name gives a salt, the structure may show the parent alone. Read-outs that look alike come from different tables or passages of the source.

Molecular target: IKZF2 (Helios) (Homo sapiens, UniProt Q96SW2+Q9UKS7)
Assay: Prolabel quantification of IKZF2 protein levels in 293GT cells
Assay type: cell-based
Details: 24 h, read-out: IKZF2 % protein reduction at 10 μM, 24 h
[1] = Pro-label assay, 293GT cells, 10 μM

Sequence of IKZF2 (Helios) (Q9UKS7 whole entry): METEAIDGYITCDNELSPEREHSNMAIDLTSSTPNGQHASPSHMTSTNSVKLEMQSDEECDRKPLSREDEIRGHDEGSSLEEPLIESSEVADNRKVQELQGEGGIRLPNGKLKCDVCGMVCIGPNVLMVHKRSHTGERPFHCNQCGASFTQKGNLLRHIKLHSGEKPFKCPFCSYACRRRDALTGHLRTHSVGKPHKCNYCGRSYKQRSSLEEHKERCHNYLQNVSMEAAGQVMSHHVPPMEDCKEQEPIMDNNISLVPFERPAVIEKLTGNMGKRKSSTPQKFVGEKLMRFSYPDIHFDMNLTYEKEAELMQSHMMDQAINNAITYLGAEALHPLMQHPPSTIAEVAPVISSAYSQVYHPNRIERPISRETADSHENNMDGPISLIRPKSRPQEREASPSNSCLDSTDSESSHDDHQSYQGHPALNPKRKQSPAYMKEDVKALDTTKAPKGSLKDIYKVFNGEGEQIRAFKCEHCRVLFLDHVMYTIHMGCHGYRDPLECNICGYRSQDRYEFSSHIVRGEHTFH
Sequence of IKZF2 (Helios) (Q96SW2 whole entry): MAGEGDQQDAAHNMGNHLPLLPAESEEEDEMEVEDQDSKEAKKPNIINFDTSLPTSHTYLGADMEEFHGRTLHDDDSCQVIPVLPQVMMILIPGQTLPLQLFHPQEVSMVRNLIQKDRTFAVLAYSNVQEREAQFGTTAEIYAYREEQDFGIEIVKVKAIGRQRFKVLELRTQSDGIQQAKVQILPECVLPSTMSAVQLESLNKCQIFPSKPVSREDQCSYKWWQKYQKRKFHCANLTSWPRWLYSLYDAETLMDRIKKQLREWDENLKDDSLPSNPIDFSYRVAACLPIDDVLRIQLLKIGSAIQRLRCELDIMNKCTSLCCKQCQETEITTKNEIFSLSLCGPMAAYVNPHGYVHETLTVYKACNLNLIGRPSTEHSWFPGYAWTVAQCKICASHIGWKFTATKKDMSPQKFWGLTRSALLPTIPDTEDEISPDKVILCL
Sequence of IKZF2 (Helios) (Q16531 whole entry partner): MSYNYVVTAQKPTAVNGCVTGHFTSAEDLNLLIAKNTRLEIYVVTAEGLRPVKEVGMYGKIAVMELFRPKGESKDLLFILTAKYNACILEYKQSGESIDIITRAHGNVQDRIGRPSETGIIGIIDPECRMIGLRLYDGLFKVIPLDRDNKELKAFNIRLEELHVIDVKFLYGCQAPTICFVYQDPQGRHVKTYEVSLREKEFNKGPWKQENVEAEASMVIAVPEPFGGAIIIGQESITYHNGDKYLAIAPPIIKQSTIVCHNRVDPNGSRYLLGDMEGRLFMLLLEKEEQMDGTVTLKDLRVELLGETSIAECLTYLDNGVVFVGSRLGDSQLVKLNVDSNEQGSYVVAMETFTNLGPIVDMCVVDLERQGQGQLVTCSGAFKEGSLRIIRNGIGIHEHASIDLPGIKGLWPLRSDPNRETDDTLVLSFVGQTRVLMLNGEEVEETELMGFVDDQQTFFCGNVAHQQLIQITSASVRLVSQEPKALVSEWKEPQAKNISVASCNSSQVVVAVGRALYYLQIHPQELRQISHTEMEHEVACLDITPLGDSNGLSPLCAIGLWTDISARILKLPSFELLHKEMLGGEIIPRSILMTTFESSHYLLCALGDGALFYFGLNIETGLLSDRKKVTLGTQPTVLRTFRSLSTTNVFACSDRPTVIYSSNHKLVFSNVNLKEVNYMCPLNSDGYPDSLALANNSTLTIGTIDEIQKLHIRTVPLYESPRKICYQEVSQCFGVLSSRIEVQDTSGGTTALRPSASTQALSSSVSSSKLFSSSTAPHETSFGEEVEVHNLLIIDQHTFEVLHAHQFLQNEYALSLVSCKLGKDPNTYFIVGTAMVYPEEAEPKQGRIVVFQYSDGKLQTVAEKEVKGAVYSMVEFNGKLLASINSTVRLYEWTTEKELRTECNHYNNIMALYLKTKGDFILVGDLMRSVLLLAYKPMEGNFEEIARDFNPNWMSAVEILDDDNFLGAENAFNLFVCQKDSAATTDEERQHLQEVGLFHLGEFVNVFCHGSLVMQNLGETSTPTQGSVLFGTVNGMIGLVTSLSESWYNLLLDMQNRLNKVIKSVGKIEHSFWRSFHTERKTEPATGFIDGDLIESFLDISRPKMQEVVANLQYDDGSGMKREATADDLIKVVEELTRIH

| Structure (SMILES) | IKZF2 % protein reduction at 10 µM [1] | IKZF2 % protein reduction at 10 µM |
| --- | --- | --- |
| O=C1CCC(N2Cc3cc(O[C@H]4CCC[C@@H]4NCc4ccccc4)ccc3C2=O)C(=O)N1 (stereo partly drawn) [I-20, 3-(5-(((1S,2S)-2-(benzylamino)cyclopentyl)oxy)-1-oxoisoindolin-2-yl)piperidine-2,6-dione] | 75% | – |
| O=C1CCC(N2Cc3cc(O[C@H]4CCOC[C@@H]4NCc4ccccc4)ccc3C2=O)C(=O)N1 (stereo partly drawn) [I-21, 3-(5-(((3S,4S)-3-(benzylamino)tetrahydro-2H-pyran-4-yl)oxy)-1-oxoisoindolin-2-yl)piperidine-2,6-dione] | 30% | – |
| O=C1CCC(N2Cc3cc(O[C@H]4CCCC[C@@H]4NCc4ccccc4)ccc3C2=O)C(=O)N1 (stereo partly drawn) [I-22, 3-(5-(((1S,2S)-2-(benzylamino)cyclohexyl)oxy)-1-oxoisoindolin-2-yl)piperidine-2,6-dione] | 80% | – |
| C[C@@H](N[C@H]1CCCC[C@@H]1Oc1ccc2c(c1)CN(C1CCC(=O)NC1=O)C2=O)c1ccccc1 (stereo partly drawn) [I-23, 3-(1-oxo-5-(((1S,2S)-2-(((R)-1-phenylethyl)amino)cyclohexyl)oxy)isoindolin-2-yl)piperidine-2,6-dione] | 80% | – |
| CCN(CCF)[C@H]1CCC[C@@H]1Oc1ccc2c(c1)CN(C1CCC(=O)NC1=O)C2=O (stereo partly drawn) [I-24, 3-(5-(((1S,2S)-2-(ethyl(2-fluoroethyl)amino)cyclopentyl)oxy)-1-oxoisoindolin-2-yl)piperidine-2,6-dione] | 80% | – |
| N[C@@H]1CCC[C@@H]1Oc1ccc2c(c1)CN(C1CCC(=O)NC1=O)C2=O (stereo partly drawn) [I-28, 3-(5-(((1S,2R)-2-aminocyclopentyl)oxy)-1-oxoisoindolin-2-yl)piperidine-2,6-dione hydrochloride] | – | 0% |
| O=C1CCC(N2Cc3cc(O[C@H]4CCC[C@@H]4N(CC4CC4)CC4CC4)ccc3C2=O)C(=O)N1 (stereo partly drawn) [I-31, 3-(5-(((1S,2S)-2-(bis(cyclopropylmethyl)amino)cyclopentyl)oxy)-1-oxoisoindolin-2-yl)piperidine-2,6-dione] | 90% | – |
| O=C1CCC(N2Cc3cc(O[C@H]4CCCC[C@@H]4N(Cc4ccccc4)Cc4ccccc4)ccc3C2=O)C(=O)N1 (stereo partly drawn) [I-34, 3-(5-(((1S,2S)-2-(dibenzylamino)cyclohexyl)oxy)-1-oxoisoindolin-2-yl)piperidine-2,6-dione] | 0% | – |
| CN(Cc1ccccc1)[C@H]1CCCC[C@@H]1Oc1ccc2c(c1)CN(C1CCC(=O)NC1=O)C2=O (stereo partly drawn) [I-39, 3-(5-(((1S,2S)-2-(benzyl(methyl)amino)cyclohexyl)oxy)-1-oxoisoindolin-2-yl)piperidine-2,6-dione] | 57% | – |
| N[C@H]1COC[C@@H]1Oc1ccc2c(c1)CN(C1CCC(=O)NC1=O)C2=O (stereo partly drawn) [I-46, 3-(5-(((3R,4S)-4-aminotetrahydrofuran-3-yl)oxy)-1-oxoisoindolin-2-yl)piperidine-2,6-dione] | 0% | – |
| CCN(CC)[C@H]1COC[C@@H]1Oc1ccc2c(c1)CN(C1CCC(=O)NC1=O)C2=O (stereo partly drawn) [I-47, 3-(5-(((3R,4S)-4-(diethylamino)tetrahydrofuran-3-yl)oxy)-1-oxoisoindolin-2-yl)piperidine-2,6-dione] | 11% | – |
| O=C1CCC(N2Cc3cc(O[C@H]4CCCC[C@@H]4N4CC(OC5CC(F)(F)C5)C4)ccc3C2=O)C(=O)N1 (stereo partly drawn) [I-56, 3-(5-(((1S,2S)-2-(3-(3,3-difluorocyclobutoxy)azetidin-1-yl)cyclohexyl)oxy)-1-oxoisoindolin-2-yl)piperidine-2,6-dione] | 91% | – |
| CCN[C@H]1CCCCC[C@@H]1Oc1ccc2c(c1)CN(C1CCC(=O)NC1=O)C2=O (stereo partly drawn) [I-57, 3-(5-(((1S,2S)-2-(ethylamino)cycloheptyl)oxy)-1-oxoisoindolin-2-yl)piperidine-2,6-dione] | – | 80% |
| O=C1CCC(N2Cc3cc(O[C@H]4CCCCC[C@@H]4NCc4ccccc4)ccc3C2=O)C(=O)N1 (stereo partly drawn) [I-58, 3-(5-(((1S,2S)-2-(benzylamino)cycloheptyl)oxy)-1-oxoisoindolin-2-yl)piperidine-2,6-dione] | – | 75% |
| CCN(CC)[C@H]1CCCCC[C@@H]1Oc1ccc2c(c1)CN(C1CCC(=O)NC1=O)C2=O (stereo partly drawn) [I-59, 3-(5-(((1S,2S)-2-(diethylamino)cycloheptyl)oxy)-1-oxoisoindolin-2-yl)piperidine-2,6-dione] | – | 39% |

Second part, led by results:

| IKZF2 % protein reduction at 10 µM [1] | Structure (SMILES) | IKZF2 % protein reduction at 10 µM |
| --- | --- | --- |
| 50% | O=C1CCC(N2Cc3cc(O[C@H]4CCC[C@@H]4N4CC5CCC(C4)O5)ccc3C2=O)C(=O)N1 (stereo partly drawn) [I-18, 3-(5-(((1S,2S)-2-(8-oxa-3-azabicyclo[3.2.1]octan-3-yl)cyclopentyl)oxy)-1-oxoisoindolin-2-yl)piperidine-2,6-dione] | – |
| 80% | CCN(C(C)C)[C@H]1CCC[C@@H]1Oc1ccc2c(c1)CN(C1CCC(=O)NC1=O)C2=O (stereo partly drawn) [I-25, 3-(5-(((1S,2S)-2-(ethyl(isopropyl)amino)cyclopentyl)oxy)-1-oxoisoindolin-2-yl)piperidine-2,6-dione] | – |
| 0% | CO[C@H]1CCC[C@@H]1Oc1ccc2c(c1)CN(C1CCC(=O)NC1=O)C2=O (stereo partly drawn) [I-26, 3-(5-(((1S,2S)-2-methoxycyclopentyl)oxy)-1-oxoisoindolin-2-yl)piperidine-2,6-dione] | – |
| 50% | O=C1CCC(N2Cc3cc(O[C@H]4CCCC[C@@H]4O)ccc3C2=O)C(=O)N1 (stereo partly drawn) [I-27, 3-(5-(((1S,2S)-2-hydroxycyclohexyl)oxy)-1-oxoisoindolin-2-yl)piperidine-2,6-dione] | – |
| 80% | CCN[C@H]1CCC[C@@H]1Oc1ccc2c(c1)CN(C1CCC(=O)NC1=O)C2=O (stereo partly drawn) [I-29, 3-(5-(((1S,2S)-2-(ethylamino)cyclopentyl)oxy)-1-oxoisoindolin-2-yl)piperidine-2,6-dione] | – |
| 0% | N[C@@H]1CCCC[C@@H]1Oc1ccc2c(c1)CN(C1CCC(=O)NC1=O)C2=O (stereo partly drawn) [I-30, 3-(5-(((1S,2R)-2-aminocyclohexyl)oxy)-1-oxoisoindolin-2-yl)piperidine-2,6-dione] | – |
| 85% | O=C1CCC(N2Cc3cc(O[C@H]4CCC[C@@H]4N4CCCCC4)ccc3C2=O)C(=O)N1 (stereo partly drawn) [I-32, 3-(1-oxo-5-(((1S,2S)-2-(piperidin-1-yl)cyclopentyl)oxy)isoindolin-2-yl)piperidine-2,6-dione] | – |
| 55% | O=C1CCC(N2Cc3cc(O[C@H]4CCC[C@@H]4N4CCOCC4)ccc3C2=O)C(=O)N1 (stereo partly drawn) [I-33, 3-(5-(((1S,2S)-2-morpholinocyclopentyl)oxy)-1-oxoisoindolin-2-yl)piperidine-2,6-dione] | – |
| 10% | CCN(CC)[C@H]1CCCC[C@H]1Oc1ccc2c(c1)CN(C1CCC(=O)NC1=O)C2=O (stereo partly drawn) [I-35, 3-(5-(((1R,2S)-2-(diethylamino)cyclohexyl)oxy)-1-oxoisoindolin-2-yl)piperidine-2,6-dione] | – |
| 80% | CN[C@H]1CCCC[C@@H]1Oc1ccc2c(c1)CN(C1CCC(=O)NC1=O)C2=O (stereo partly drawn) [I-36, 3-(5-(((1S,2S)-2-(methylamino)cyclohexyl)oxy)-1-oxoisoindolin-2-yl)piperidine-2,6-dione] | – |
| 86% | CC1(C#N)CCN([C@H]2CCC[C@@H]2Oc2ccc3c(c2)CN(C2CCC(=O)NC2=O)C3=O)CC1 (stereo partly drawn) [I-38, 1-((1S,2S)-2-((2-(2,6-dioxopiperidin-3-yl)-1-oxoisoindolin-5-yl)oxy)cyclopentyl)-4-methylpiperidine-4-carbonitrile] | – |
| 0% | CCN(CC)[C@@H]1CCC[C@H]1Oc1ccc2c(c1)CN(C1CCC(=O)NC1=O)C2=O (stereo partly drawn) [I-43, 3-(5-(((1R,2R)-2-(diethylamino)cyclopentyl)oxy)-1-oxoisoindolin-2-yl)piperidine-2,6-dione] | – |
| 89% | CCOC1CN([C@H]2CCCC[C@@H]2Oc2ccc3c(c2)CN(C2CCC(=O)NC2=O)C3=O)C1 (stereo partly drawn) [I-48, 3-(5-(((1S,2S)-2-(3-ethoxyazetidin-1-yl)cyclohexyl)oxy)-1-oxoisoindolin-2-yl)piperidine-2,6-dione] | – |
| 86% | O=C1CCC(N2Cc3cc(O[C@H]4CCCC[C@@H]4N4CC(OCC(F)(F)F)C4)ccc3C2=O)C(=O)N1 (stereo partly drawn) [I-49, 3-(1-oxo-5-(((1S,2S)-2-(3-(2,2,2-trifluoroethoxy)azetidin-1-yl)cyclohexyl)oxy)isoindolin-2-yl)piperidine-2,6-dione] | – |
| 85% | O=C1CCC(N2Cc3cc(O[C@H]4CCCC[C@@H]4N4CC(OCC(F)F)C4)ccc3C2=O)C(=O)N1 (stereo partly drawn) [I-50, 3-(5-(((1S,2S)-2-(3-(2,2-difluoroethoxy)azetidin-1-yl)cyclohexyl)oxy)-1-oxoisoindolin-2-yl)piperidine-2,6-dione] | – |
| 90% | O=C1CCC(N2Cc3cc(O[C@H]4CCCC[C@@H]4N4CC(OCC5CC5)C4)ccc3C2=O)C(=O)N1 (stereo partly drawn) [I-51, 3-(5-(((1S,2S)-2-(3-(cyclopropylmethoxy)azetidin-1-yl)cyclohexyl)oxy)-1-oxoisoindolin-2-yl)piperidine-2,6-dione] | – |
| 89% | O=C1CCC(N2Cc3cc(O[C@H]4CCC[C@@H]4N4CC(OCc5ccccc5)C4)ccc3C2=O)C(=O)N1 (stereo partly drawn) [I-52, 3-(5-(((1S,2S)-2-(3-(benzyloxy)azetidin-1-yl)cyclopentyl)oxy)-1-oxoisoindolin-2-yl)piperidine-2,6-dione] | – |
| 88% | CC(C)OC1CN([C@H]2CCCC[C@@H]2Oc2ccc3c(c2)CN(C2CCC(=O)NC2=O)C3=O)C1 (stereo partly drawn) [I-53, 3-(5-(((1S,2S)-2-(3-isopropoxyazetidin-1-yl)cyclohexyl)oxy)-1-oxoisoindolin-2-yl)piperidine-2,6-dione] | – |
| 91% | O=C1CCC(N2Cc3cc(O[C@H]4CCCC[C@@H]4N4CC(OCc5ccccc5)C4)ccc3C2=O)C(=O)N1 (stereo partly drawn) [I-54, 3-(5-(((1S,2S)-2-(3-(benzyloxy)azetidin-1-yl)cyclohexyl)oxy)-1-oxoisoindolin-2-yl)piperidine-2,6-dione] | – |
| 91% | CCOC1CN([C@H]2CCCCC[C@@H]2Oc2ccc3c(c2)CN(C2CCC(=O)NC2=O)C3=O)C1 (stereo partly drawn) [I-55, 3-(5-(((1S,2S)-2-(3-ethoxyazetidin-1-yl)cycloheptyl)oxy)-1-oxoisoindolin-2-yl)piperidine-2,6-dione] | – |
